Experimental data reported in ChEMBL document CHEMBL1201862, “PubChem BioAssay data set” (2004).
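Grown in 96-well plates, cells were treated for 48 hours with each compound at five concentrations. Insufficient inhibition: endpoint recorded as highest concentration tested. GI50: concentration for 50% inhibition of growth.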 Activity calls are given as the source filed them. Cut-off read from the data, not from the text of the source: active = GI50 up to about 1.1 µM and inactive = higher.

Experiments:
Assay in all cases: DTP human tumour cell line panel, 48 h
[1] = system: 786-0
[2] = system: ACHN
[3] = system: BT-549
[4] = system: DU-145
[5] = system: HCC 2998
[6] = system: HL-60
[7] = system: HOP-92
[8] = system: Hs-578T
[9] = system: MCF7
[10] = system: MDA-MB-231
[11] = system: MDA-MB-435
[12] = system: MDA-N
[13] = system: NCI-H226
[14] = system: NCI/ADR-RES
[15] = system: RXF 393
[16] = system: SF-539
[17] = system: SNB-78
[18] = system: SR
[19] = system: T47D
[20] = system: UACC-62

Compound	GI50 [1]	GI50 [2]	GI50 [3]	GI50 [4]	GI50 [5]	GI50 [6]	GI50 [7]	GI50 [8]	GI50 [9]	GI50 [10]	GI50 [11]	GI50 [12]	GI50 [13]	GI50 [14]	GI50 [15]	GI50 [16]	GI50 [17]	GI50 [18]	GI50 [19]	GI50 [20]
CNC(=O)/C(=C/c1ccc(OC)cc1)c1cc(OC)c(OC)c(OC)c1	3.47 µM (inactive)	8.65 µM (inactive)	50.8 µM (inactive)	2.74 µM (inactive)	2.45 µM (inactive)	0.493 µM (active)	13.9 µM (inactive)	1.61 µM (inactive)	0.769 µM (active)	6.14 µM (inactive)	0.281 µM (active)	0.206 µM (active)	10.3 µM (inactive)	1.98 µM (inactive)	1.99 µM (inactive)	1.34 µM (inactive)	4.94 µM (inactive)	0.513 µM (active)	> 100 µM (inactive)	0.67 µM (active)
O=C(Cc1ccccc1)NN1C(=O)C(Cl)C1c1ccccc1 (stereo not drawn)	> 100 µM (inactive)	> 100 µM (inactive)			> 100 µM (inactive)	27.6 µM (inactive)							> 100 µM (inactive)		77.6 µM (inactive)		> 100 µM (inactive)	18.3 µM (inactive)		77.4 µM (inactive)
CCOC(=O)C(NC(=O)c1ccccc1)(Nc1ccc(S(=O)(=O)Nc2cc(C)on2)cc1)C(F)(F)F (stereo not drawn)	> 100 µM (inactive)	> 100 µM (inactive)	> 100 µM (inactive)	> 100 µM (inactive)	> 100 µM (inactive)	> 100 µM (inactive)	> 100 µM (inactive)	> 100 µM (inactive)	> 100 µM (inactive)	> 100 µM (inactive)	> 100 µM (inactive)	> 100 µM (inactive)	> 100 µM (inactive)	> 100 µM (inactive)	> 100 µM (inactive)	> 100 µM (inactive)		> 100 µM (inactive)	> 100 µM (inactive)	> 100 µM (inactive)
CCCCCCCCCCCC1CCCC(C)N1 (stereo not drawn)					46.3 µM (inactive)	10.8 µM (inactive)	17.7 µM (inactive)		50 µM (inactive)				76.9 µM (inactive)	72.4 µM (inactive)	35.8 µM (inactive)	69.8 µM (inactive)	73.3 µM (inactive)			36.7 µM (inactive)
Cn1c2c([N+](=O)[O-])[se]nc2c(=O)n1-c1ccc([N+](=O)[O-])cc1	2.44 µM (inactive)	1.95 µM (inactive)			1.74 µM (inactive)	0.615 µM (active)	1.63 µM (inactive)						2.96 µM (inactive)		0.665 µM (active)	1.88 µM (inactive)	1.99 µM (inactive)	0.0474 µM (active)		1.6 µM (inactive)
C[C@@]12CC[C@H]3[C@@H]4CCC(=O)N[C@@]4(C)CC[C@@H]3[C@@]1(C)CC[C@H](OC(=O)Cc1ccc(N(CCCl)CCCl)cc1)C2					16.3 µM (inactive)		19 µM (inactive)		11.7 µM (inactive)				17.2 µM (inactive)	18.3 µM (inactive)	16.5 µM (inactive)	17.3 µM (inactive)	19.5 µM (inactive)			15.5 µM (inactive)
CCCCCCCCCCCCCCCCNCCCN(C)CCCN	15.2 µM (inactive)	19.4 µM (inactive)			18.3 µM (inactive)	18.6 µM (inactive)							19.8 µM (inactive)			17.8 µM (inactive)	16.9 µM (inactive)	21 µM (inactive)		17.3 µM (inactive)
CCCc1onc(CCC(=O)N(Cc2ccccc2)Cc2ccccc2)c1CC	> 100 µM (inactive)	> 100 µM (inactive)			> 100 µM (inactive)	> 100 µM (inactive)	48.8 µM (inactive)										> 100 µM (inactive)			> 100 µM (inactive)
COc1cc(/C=C/C(=N\NC(N)=S)c2sc(NNC(C)=O)nc2C)ccc1O	> 100 µM (inactive)	> 100 µM (inactive)	> 100 µM (inactive)	> 100 µM (inactive)	> 100 µM (inactive)	29.6 µM (inactive)	> 100 µM (inactive)	> 100 µM (inactive)	> 100 µM (inactive)	> 100 µM (inactive)	> 100 µM (inactive)	> 100 µM (inactive)	> 100 µM (inactive)	> 100 µM (inactive)	> 100 µM (inactive)	> 100 µM (inactive)		> 100 µM (inactive)	> 100 µM (inactive)	> 100 µM (inactive)
